Test results: patent publication US20240279205A1, “NOVEL BENZIMIDAZOLE DERIVATIVE” (Carna Biosciences, Inc., priority 2020, published 2024)
Where a name gives a salt, the structure may show the parent alone.

Columns and labels:
human STING (hSTING) = biological target: T1, human STING (hSTING) (Homo sapiens, UniProt Q86WV6); experiment: Inhibition test of intracellular human STING (hSTING) pathway using SEAP reporter cells (HEK-Blue ISG), stimulation with Compound 3; assay type: cell-based; set-up: hSTING inhibitory activity: scale not given here; settings: Compound 3 10 nM stimulation, 21 hours; for IC50: read-out: hSTING inhibitory activity
T1 construct: host or cells: HEK-Blue ISG cells (HEK293-derived SEAP reporter line)
Summary of the method: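 IC50 derived by regressing inhibition rate against log compound concentration (0.1 to 10 μM final, added 1 h before agonist), with 0% and 100% set by wells without and with 10 nM Compound 3. SEAP colour reaction read after 21 h stimulation of HEK-Blue ISG reporter cells.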

[1] = tested on: STING activation (IFN-β production in THP-1 cells); experiment: Human IFN-β production inhibition test by cGAMP stimulation in THP-1 cells; assay type: cell-based; set-up: IFN-β bioinhibitory activity: scale not given here; settings: 2'3'-cGAMP transfection, 18 hours, IFN-β ELISA; for IC50: Homo sapiens, read-out: IFN-β bioinhibitory activity
Description: Human IFN-β production inhibition test by cGAMP stimulation
The inhibitory activity of test compounds against STING activation was evaluated by measuring the amount of IFN-β produced when human monocytic cell line THP-1 cells were stimulated with the endogenous ligand cGAMP.
After seeding THP-1 cells (ATCC) in a 96-well plate, PMA (Santa Cruz Biotechnology) adjusted to a concentration of 100 nM after addition was added, and incubated at 37° C. in a 5% CO2 incubator. It was cultured overnight (RPMI1640 medium containing 10% FBS, 50 U/mL penicillin/50 μg/mL streptomycin). A test compound solution adjusted to a final concentration of 0.001 to 1 μM was added to each well of this plate and cultured for 1 hour in a CO2 incubator (DMSO final concentration 0.1%). 0.12 μg/well of 2′3′-cGAMP (Invivogen, #tlrl-nacga23) was introduced into the cells by transfection using Lipofectamine2000 (Invitrogen) and cultured in a CO incubator for an additional 18 hours. After collecting the culture supernatant from each well, the amount of human IFN-β produced in the culture supernatant was measured by ELISA using R&D human IFN-β Duoset (R&D Systems).
Assuming that the human IFN-β production amount of the test compound-free and cGAMP-added group is 100%, and the human IFN-β production amount of the test compound-free and cGAMP-free group is 0%, the IC50 value was determined by regression analysis of the inhibitory rate determined from the amount of human IFN-β production at each compound concentration and the concentration of the test compound (logarithm).

T1 sequence (Q86WV6 whole entry H232R): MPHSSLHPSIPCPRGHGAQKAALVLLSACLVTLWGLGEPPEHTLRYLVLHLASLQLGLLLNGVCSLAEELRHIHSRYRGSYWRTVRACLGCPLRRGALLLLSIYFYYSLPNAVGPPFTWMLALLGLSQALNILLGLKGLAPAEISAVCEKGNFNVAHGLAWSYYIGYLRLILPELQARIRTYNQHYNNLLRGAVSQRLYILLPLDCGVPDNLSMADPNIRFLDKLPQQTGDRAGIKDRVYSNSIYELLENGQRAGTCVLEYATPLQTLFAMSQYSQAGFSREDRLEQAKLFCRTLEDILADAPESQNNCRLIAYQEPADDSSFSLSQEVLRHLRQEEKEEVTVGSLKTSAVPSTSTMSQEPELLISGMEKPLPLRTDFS

SMILES	hSTING inhibitory activity (human STING (hSTING))	IC50 [1]	IC50 (human STING (hSTING))	IFN-β bioinhibitory activity [1]
Clc1ccc2[nH]c(Nc3c[nH]c4ccc(Br)nc34)nc2c1 [Embodiment 32, N-(5-bromo-1H-pyrrolo[3,2-b]pyridin-3-yl)-5-chloro-1H-benzo[d]imidazol-2-amine]	* *	–	–	* *
Fc1ccc2[nH]c(Nc3c[nH]c4ccc(Br)cc34)nc2c1 [Embodiment 33, N-(5-bromo-1H-indol-3-yl)-5-fluoro-1H-benzo[d]imidazol-2-amine]	* * *	100 to 1000 nM	–	–
Clc1ccc2[nH]cc(Nc3nc4cc(Oc5ccccc5)ccc4[nH]3)c2n1 [Embodiment 35, N-(5-chloro-1H-pyrrolo[3,2-b]pyridin-3-yl)-5-phenoxy-1H-benzo[d]imidazol-2-amine]	* * *	100 to 1000 nM	–	–
COc1ccc2[nH]cc(Nc3nc4cc(Oc5ccccc5)ccc4[nH]3)c2n1 [Embodiment 36, N-(5-methoxy-1H-pyrrolo[3,2-b]pyridin-3-yl)-5-phenoxy-1H-benzo[d]imidazol-2-amine]	* *	–	–	* *
Clc1ccnc2c(Nc3nc4cc(Oc5ccccc5)ccc4[nH]3)c[nH]c12 [Embodiment 38, N-(7-chloro-1H-pyrrolo[3,2-b]pyridin-3-yl)-5-phenoxy-1H-benzo[d]imidazol-2-amine]	* *	≥ 1000 nM	–	–
Cn1c(Nc2c[nH]c3ccc(Cl)nc23)nc2ccc(Oc3ccccc3)cc21 [Embodiment 44, N-(5-chloro-1H-pyrrolo[3,2-b]pyridin-3-yl)-1-methyl-6-phenoxy-1H-benzo[d]imidazol-2-amine]	* *	100 to 1000 nM	–	–
Cn1c(Nc2c[nH]c3ccc(Cl)nc23)nc2cc(Oc3ccccc3)ccc21 [Embodiment 45, N-(5-Chloro-1H-pyrrolo[3,2-b]pyridin-3-yl)-1-methyl-5-phenoxy-1H-benzo[d]imidazol-2-amine]	* *	100 to 1000 nM	–	–
Cn1c(Nc2c[nH]c3ccc(Cl)nc23)nc2cc(C(F)(F)F)ccc21 [Embodiment 47, N-(5-Chloro-1H-pyrrolo[3,2-b]pyridin-3-yl)-1-methyl-5-(trifluoromethyl)-1H-benzo[d] imidazol-2-amine]	* *	–	–	* *
Cc1ccnc2c(Nc3nc4cc(Oc5ccccc5)ccc4[nH]3)c[nH]c12 [Embodiment 52, N-(7-methyl-1H-pyrrolo[3,2-b]pyridin-3-yl)-5-phenoxy-1H-benzo[d]imidazol-2-amine]	* *	100 to 1000 nM	–	–
Cc1ccc2[nH]cc(Nc3nc4cc(Oc5ccccc5)ccc4[nH]3)c2n1 [Embodiment 53, N-(5-methyl-1H-pyrrolo[3,2-b]pyridin-3-yl)-5-phenoxy-1H-benzo[d]imidazol-2-amine]	* *	≥ 1000 nM	–	–
C[Si](C)(C)C#Cc1ccc2[nH]c(Nc3c[nH]c4ccc(Br)nc34)nc2c1 [Embodiment 59, N-(5-bromo-1H-pyrrolo[3,2-b]pyridin-3-yl)-5-[(trimethylsilyl)ethynyl]-1H-benzo[d]imidazol-2-amine]	* * *	–	–	* *

Continued, in another order:

hSTING inhibitory activity (human STING (hSTING))	IC50 [1]	IC50 (human STING (hSTING))	SMILES	IFN-β bioinhibitory activity [1]
* *	≥ 1000 nM	–	c1ccc(Oc2ccc3[nH]c(Nc4c[nH]c5c(-c6ccccc6)ccnc45)nc3c2)cc1 [Embodiment 54, 5-phenoxy-N-(7-phenyl-1H-pyrrolo[3,2-b]pyridin-3-yl)-1H-benzo[d]imidazol-2-amine]	–
* * *	–	–	Cn1c(Nc2c[nH]c3ccc(Cl)cc23)nc2cc(C(F)(F)F)ccc21 [Embodiment 56, N-(5-chloro-1H-indol-3-yl)-1-methyl-5-(trifluoromethyl)-1H-benzo[d]imidazol-2-amine]	* * *
* * *	–	–	FC(F)(F)c1ccc2c(c1)nc(Nc1c[nH]c3ccc(Cl)cc13)n2C1CC1 [Embodiment 57, N-(5-chloro-1H-indol-3-yl)-1-cyclopropyl-5-(trifluoromethyl)-1H-benzo[d]imidazol-2-amine]	* *
* *	100 to 1000 nM	–	Cn1c(Nc2c[nH]c3ccc(Cl)nc23)nc2ccc(Oc3ccc(F)cc3)cc21 [Embodiment 58, N-(5-chloro-1H-pyrrolo[3,2-b]pyridin-3-yl)-6-(4-fluorophenoxy)-1-methyl-1H-benzo[d]imidazol-2-amine]	–
* * *	100 to 1000 nM	1 to 10 µM	Brc1ccc2[nH]cc(Nc3nc4cc(-c5ccccc5)ccc4[nH]3)c2n1 [Embodiment 60, N-(5-bromo-1H-pyrrolo[3,2-b]pyridin-3-yl)-5-phenyl-1H-benzo [d]imidazol-2-amine]	–
* *	100 to 1000 nM	–	CN(C)c1ccc(Oc2ccc3[nH]c(Nc4c[nH]c5ccc(Br)nc45)nc3c2)cc1 [Embodiment 64, N-(5-bromo-1H-pyrrolo[3,2-b]pyridin-3-yl)-5-[4-(dimethylamino)phenoxy]-1H-benzo[d]imidazol-2-amine]	–
* *	100 to 1000 nM	–	Fc1cnc2[nH]cc(Nc3nc4cc(Oc5ccccc5)ccc4[nH]3)c2c1 [Embodiment 72, N-(5-fluoro-1H-pyrrolo[2,3-b]pyridin-3-yl)-5-phenoxy-1H-benzo [d]imidazol-2-amine formate]	–
* * *	100 to 1000 nM	–	Clc1cnc2[nH]cc(Nc3nc4cc(Oc5ccccc5)ccc4[nH]3)c2c1 [Embodiment 73, N-(5-Chloro-1H-pyrrolo[2,3-b]pyridin-3-yl)-5-phenoxy-1H-benzo[d]imidazol-2-amine formate]	–
–	–	≥ 10 µM	Brc1cnc2[nH]cc(Nc3nc4cc(Oc5ccccc5)ccc4[nH]3)c2n1 [Example 21, 2-bromo-N-(5-phenoxy-1H-benzo[d]imidazol-2-yl)-5H-pyrrolo[2,3-b]pyrazin-7-amine]	–
* *	–	–	COC(=O)c1ccc2[nH]cc(Nc3nc4cc(Oc5ccccc5)ccc4[nH]3)c2c1 [Example 22, methyl 3-[(5-phenoxy-1H-benzo[d]imidazol-2-yl)amino]-1H-indole-5-carboxylate]	–
* *	–	–	O=S(=O)(c1ccccc1)c1ccc2[nH]c(Nc3c[nH]c4ccc(Br)cc34)nc2c1 [Example 23, N-(5-bromo-1H-indol-3-yl)-5-(phenylsulfonyl)-1H-benzo[d]imidazol-2-amine]	–
–	–	≥ 10 µM	O=C(O)c1ccc2[nH]cc(Nc3nc4cc(Oc5ccccc5)ccc4[nH]3)c2c1 [Example 27, 3-[(5-phenoxy-1H-benzo[d]imidazol-2-yl)amino]-1H-indole-5-carboxylic acid]	–
–	–	≥ 10 µM	O=C(c1ccc2[nH]cc(Nc3nc4cc(Oc5ccccc5)ccc4[nH]3)c2c1)N1CCOCC1 [Example 28, morpholino {3-[(5-phenoxy-1H-benzo[d]imidazol-2-yl)amino]-1H-indol-5-yl} methanone]	–
–	–	≥ 10 µM	C#CCNC(=O)c1ccc2[nH]cc(Nc3nc4cc(Oc5ccccc5)ccc4[nH]3)c2c1 [Example 29, 3-[(5-phenoxy-1H-benzo[d]imidazol-2-yl)amino]-N-(prop-2-yn-1-yl)-1H-indole-5-carboxamide]	–
* *	–	–	O=C(Nc1ccccc1)c1ccc2[nH]cc(Nc3nc4cc(Oc5ccccc5)ccc4[nH]3)c2c1 [Example 30, 3-[(5-phenoxy-1H-benzo[d]imidazol-2-yl)amino]-N-phenyl-1H-indole-5-carboxamide]	–
